Reference: ChEMBL document CHEMBL1126726 (J Med Chem, 1993)

Tests used:
Oryctolagus cuniculus [1] = species on record: Oryctolagus cuniculus; test: (§1) Intrinsic activity was measured as maximum contraction relative to 5-HT in rabbit basilar artery; type: functional
Canis familiaris [2] = species on record: Canis familiaris; test: Intrinsic activity was measured as maximum contraction relative to 5-HT in dog saphenous vein; type: functional, Canis lupus familiaris
[3] = as §1; type: functional, Oryctolagus cuniculus
[4] = target: Serotonin 2 (5-HT2) receptor (Rattus norvegicus) (UniProt P30994+P08909+P14842); conditions: Cortex
Canis familiaris [5] = species on record: Canis familiaris; test: In vitro evaluation in the dog saphenous vein for maximal response; type: functional, organism-based; conditions: Canis lupus familiaris
Oryctolagus cuniculus [6] = species on record: Oryctolagus cuniculus; test: In vitro evaluation in rabbit basilar artery for maximal response; type: functional, organism-based
[7] = target: T1, 5-hydroxytryptamine receptor 2C (Rattus norvegicus) (UniProt P08909)
T1 sequence (whole entry): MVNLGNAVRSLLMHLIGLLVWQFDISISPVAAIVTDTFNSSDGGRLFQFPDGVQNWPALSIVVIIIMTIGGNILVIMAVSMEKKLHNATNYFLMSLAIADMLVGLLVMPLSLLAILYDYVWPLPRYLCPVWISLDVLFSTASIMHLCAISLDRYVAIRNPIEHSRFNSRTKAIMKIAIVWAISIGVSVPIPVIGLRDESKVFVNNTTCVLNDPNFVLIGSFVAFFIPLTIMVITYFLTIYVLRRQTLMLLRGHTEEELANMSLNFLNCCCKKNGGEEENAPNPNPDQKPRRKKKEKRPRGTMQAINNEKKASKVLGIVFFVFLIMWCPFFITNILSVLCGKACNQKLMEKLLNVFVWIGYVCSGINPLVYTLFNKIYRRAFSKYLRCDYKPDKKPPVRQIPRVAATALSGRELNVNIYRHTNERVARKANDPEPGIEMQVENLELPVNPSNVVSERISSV

[8] = target: Serotonin 2 (5-HT2) receptor (Homo sapiens) (UniProt P41595+P28223+P28335)
Sequence of Serotonin 2 (5-HT2) receptor (Homo sapiens) (P28223 whole entry, looked up): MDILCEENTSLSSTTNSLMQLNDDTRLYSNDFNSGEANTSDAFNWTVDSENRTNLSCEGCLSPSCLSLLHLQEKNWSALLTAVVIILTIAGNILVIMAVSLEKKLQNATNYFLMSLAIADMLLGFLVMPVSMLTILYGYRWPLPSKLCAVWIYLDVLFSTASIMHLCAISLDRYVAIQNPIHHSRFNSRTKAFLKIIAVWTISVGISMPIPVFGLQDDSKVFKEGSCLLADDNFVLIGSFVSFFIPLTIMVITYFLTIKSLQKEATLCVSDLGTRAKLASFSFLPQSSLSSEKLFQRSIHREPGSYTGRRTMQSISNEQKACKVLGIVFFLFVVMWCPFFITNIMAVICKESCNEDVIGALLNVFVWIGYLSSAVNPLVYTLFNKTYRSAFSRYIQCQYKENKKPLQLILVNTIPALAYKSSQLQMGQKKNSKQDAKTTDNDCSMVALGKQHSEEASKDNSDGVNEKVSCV
Sequence of Serotonin 2 (5-HT2) receptor (Homo sapiens) (P28335 whole entry, looked up): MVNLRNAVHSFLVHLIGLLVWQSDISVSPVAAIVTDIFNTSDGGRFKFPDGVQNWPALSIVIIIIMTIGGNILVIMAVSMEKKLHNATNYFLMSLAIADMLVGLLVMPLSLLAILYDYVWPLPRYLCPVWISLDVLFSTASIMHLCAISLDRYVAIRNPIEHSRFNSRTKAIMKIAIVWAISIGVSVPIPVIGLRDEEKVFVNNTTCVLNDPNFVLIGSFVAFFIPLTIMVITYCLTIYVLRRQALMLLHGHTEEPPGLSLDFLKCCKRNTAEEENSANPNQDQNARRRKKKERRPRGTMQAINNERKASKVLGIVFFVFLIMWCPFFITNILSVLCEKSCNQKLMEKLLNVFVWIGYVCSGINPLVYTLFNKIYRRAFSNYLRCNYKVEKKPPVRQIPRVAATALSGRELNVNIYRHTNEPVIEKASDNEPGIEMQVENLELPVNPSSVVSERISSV
Sequence of Serotonin 2 (5-HT2) receptor (Homo sapiens) (P41595 whole entry, looked up): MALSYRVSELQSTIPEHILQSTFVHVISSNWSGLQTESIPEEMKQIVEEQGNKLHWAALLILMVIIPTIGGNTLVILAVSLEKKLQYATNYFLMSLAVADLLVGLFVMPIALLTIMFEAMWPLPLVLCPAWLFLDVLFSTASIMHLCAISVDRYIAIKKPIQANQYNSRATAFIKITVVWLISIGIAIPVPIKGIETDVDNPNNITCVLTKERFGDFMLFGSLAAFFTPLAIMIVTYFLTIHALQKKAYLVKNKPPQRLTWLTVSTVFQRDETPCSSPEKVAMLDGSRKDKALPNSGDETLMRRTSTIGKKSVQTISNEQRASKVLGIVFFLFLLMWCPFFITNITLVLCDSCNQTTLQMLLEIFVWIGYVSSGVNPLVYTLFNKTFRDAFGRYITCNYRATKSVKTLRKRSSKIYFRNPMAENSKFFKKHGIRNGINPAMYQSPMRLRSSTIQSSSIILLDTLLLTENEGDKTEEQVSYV

Sequence of Serotonin 2 (5-HT2) receptor (Rattus norvegicus) (P14842 whole entry, looked up, one chain of several): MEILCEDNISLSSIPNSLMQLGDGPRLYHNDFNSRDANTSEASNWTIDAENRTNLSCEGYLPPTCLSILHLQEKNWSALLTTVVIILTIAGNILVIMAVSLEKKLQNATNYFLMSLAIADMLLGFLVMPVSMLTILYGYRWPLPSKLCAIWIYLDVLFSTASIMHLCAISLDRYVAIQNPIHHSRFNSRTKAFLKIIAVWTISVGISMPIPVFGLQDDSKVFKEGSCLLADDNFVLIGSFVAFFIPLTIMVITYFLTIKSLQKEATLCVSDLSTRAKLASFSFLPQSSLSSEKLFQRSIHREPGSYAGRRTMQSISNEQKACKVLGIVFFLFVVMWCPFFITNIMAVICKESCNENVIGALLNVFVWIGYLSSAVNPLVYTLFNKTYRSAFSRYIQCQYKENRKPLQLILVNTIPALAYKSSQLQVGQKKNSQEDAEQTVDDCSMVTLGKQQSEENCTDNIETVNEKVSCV
Sequence of Serotonin 2 (5-HT2) receptor (Rattus norvegicus) (P30994 whole entry, looked up, one chain of several): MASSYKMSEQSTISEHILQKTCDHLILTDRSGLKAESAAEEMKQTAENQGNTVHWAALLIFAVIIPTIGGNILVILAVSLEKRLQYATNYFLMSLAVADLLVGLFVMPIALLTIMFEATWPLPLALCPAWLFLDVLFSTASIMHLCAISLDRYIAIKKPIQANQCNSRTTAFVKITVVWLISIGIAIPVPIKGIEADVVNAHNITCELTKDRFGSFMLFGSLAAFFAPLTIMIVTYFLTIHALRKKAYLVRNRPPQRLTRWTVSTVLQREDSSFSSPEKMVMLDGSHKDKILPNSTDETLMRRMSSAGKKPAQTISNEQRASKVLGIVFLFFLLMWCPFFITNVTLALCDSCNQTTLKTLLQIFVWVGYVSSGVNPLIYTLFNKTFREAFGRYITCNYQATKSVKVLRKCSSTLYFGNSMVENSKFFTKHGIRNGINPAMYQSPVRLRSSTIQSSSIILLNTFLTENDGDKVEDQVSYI

With CCN(CC)C(=O)N[C@H]1C=C2c3cccc4[nH]cc(c34)C[C@H]2N(C)C1 [LISURIDE] the IA (Oryctolagus cuniculus [1]) was 0.73 and the IA (Canis familiaris [2]) was 0.73.

NCCc1c[nH]c2ccc(O)cc12 [SEROTONIN] gave an IA (Canis familiaris [2]) of 1 and an IA [3] of 1.

With CNS(=O)(=O)Cc1ccc2[nH]cc(CCN(C)C)c2c1 the IA (Oryctolagus cuniculus [1]) was 0.74, the IA (Canis familiaris [2]) was 0.78 and the pKD [4] was > 4. The EC50 (Canis familiaris [5]) was 400 nM and the EC50 (Oryctolagus cuniculus [6]) was 2400 nM.

In the case of NCCc1c[nH]c2ccc(C(N)=O)cc12, the pKD [7] is reported as 6.2 and the pKD [8] is reported as 4.7.
